Results: PMC6572064, “Discovery of 2-(1-(3-(4-Chloroxyphenyl)-3-oxo- propyl)pyrrolidine-3-yl)-1H-benzo[d]imidazole-4-carboxamide: A Potent Poly(ADP-ribose) Polymerase (PARP) Inhibitor for Treatment of Cancer” (Molecules, 2019)
pIC50: −log10 of the molar value. Where two headings read alike, the source gives them in different places.

How the values were obtained:
[1] = system: CAPAN-1 (a BRCA-2-mutated pancreatic cancer cell line); test: Cell proliferation assay, three-day, CellTiter-Glo, CAPAN-1; type: cell-based; settings: for inhibition at 0.00508 µM: CAPAN-1, Conc. 0.00508 uM; for inhibition at 0.0152 µM: CAPAN-1, Conc. 0.0152 uM; for inhibition at 0.0457 µM: CAPAN-1, Conc. 0.0457 uM; for inhibition at […]: CAPAN-1, Conc. 0.14 uM; for inhibition at 0.41 µM: CAPAN-1, Conc. 0.41 uM; for inhibition at 1.23 µM: CAPAN-1, Conc. 1.23 uM; for inhibition at 3.7 µM: CAPAN-1, Conc. 3.70 uM; for inhibition at 11.11 µM: CAPAN-1, Conc. 11.11 uM; for inhibition at 33.33 µM: CAPAN-1, Conc. 33.33 uM; for inhibition at 100 µM: CAPAN-1, Conc. 100.00 uM
Procedure, shortened: (§1)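 Cells seeded overnight in 384-well plates, then exposed to compounds (DMSO stock diluted in medium) for 72 h at 37 °C, 5% CO2. Viability read as CellTiter-Glo luminescence after 60 min at room temperature.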

PARP-1 = biological target: T1, PARP-1 (Homo sapiens, UniProt P09874); test: PARP-1 inhibition assay (PARP-1 Chemiluminescent Assay Kit, BPS Bioscience); type: biochemical; settings: for inhibition at 0.01 µM: 10 nM compound
T1 construct: purchased BPS Bioscience 80569
T1 sequence (P09874 whole entry): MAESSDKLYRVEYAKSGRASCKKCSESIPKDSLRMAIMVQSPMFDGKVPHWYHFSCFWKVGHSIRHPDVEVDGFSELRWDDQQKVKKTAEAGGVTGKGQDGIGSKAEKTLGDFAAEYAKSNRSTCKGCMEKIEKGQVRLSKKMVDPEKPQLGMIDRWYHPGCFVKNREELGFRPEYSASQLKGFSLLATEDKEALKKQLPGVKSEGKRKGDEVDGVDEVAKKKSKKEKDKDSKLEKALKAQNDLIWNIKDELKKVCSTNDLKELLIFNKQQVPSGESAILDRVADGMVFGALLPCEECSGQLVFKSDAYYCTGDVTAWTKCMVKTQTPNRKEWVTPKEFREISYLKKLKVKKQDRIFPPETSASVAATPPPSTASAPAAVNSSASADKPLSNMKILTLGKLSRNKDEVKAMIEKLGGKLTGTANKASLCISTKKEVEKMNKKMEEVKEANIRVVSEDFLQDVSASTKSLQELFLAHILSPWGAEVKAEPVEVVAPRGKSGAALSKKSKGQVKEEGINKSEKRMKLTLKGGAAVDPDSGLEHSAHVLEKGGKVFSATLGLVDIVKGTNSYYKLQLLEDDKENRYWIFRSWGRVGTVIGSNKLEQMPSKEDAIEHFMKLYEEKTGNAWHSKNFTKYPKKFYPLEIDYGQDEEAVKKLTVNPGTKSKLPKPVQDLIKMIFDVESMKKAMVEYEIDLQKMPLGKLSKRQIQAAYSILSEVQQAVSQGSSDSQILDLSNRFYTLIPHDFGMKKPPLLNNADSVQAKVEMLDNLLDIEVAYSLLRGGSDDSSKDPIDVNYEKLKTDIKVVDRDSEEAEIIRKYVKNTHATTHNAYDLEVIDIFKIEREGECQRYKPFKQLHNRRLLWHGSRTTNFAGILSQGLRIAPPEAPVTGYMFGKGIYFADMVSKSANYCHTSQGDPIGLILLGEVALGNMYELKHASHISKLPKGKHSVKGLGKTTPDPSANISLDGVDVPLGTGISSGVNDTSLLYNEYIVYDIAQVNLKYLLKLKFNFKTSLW
Description: (§2) The PARP-1 and PARP-2 inhibition assays were performed in outsourcing, by a CRO company, Shanghai Medicilon Inc. (Shanghai, China). […] Briefly, PARP-1 or PARP-2 biotinylated substrate was incubated with compounds or solvent control at varying concentrations and an assay buffer containing the PARP-1 or PARP-2 enzyme.

PARP-2 = biological target: T2, PARP-2 (Homo sapiens, UniProt Q9UGN5); test: PARP-2 inhibition assay (PARP-2 Chemiluminescent Assay Kit, BPS Bioscience); type: biochemical; settings: for inhibition at 0.01 µM: 10 nM compound
T2 construct: purchased BPS Bioscience 80552
T2 sequence (Q9UGN5 whole entry): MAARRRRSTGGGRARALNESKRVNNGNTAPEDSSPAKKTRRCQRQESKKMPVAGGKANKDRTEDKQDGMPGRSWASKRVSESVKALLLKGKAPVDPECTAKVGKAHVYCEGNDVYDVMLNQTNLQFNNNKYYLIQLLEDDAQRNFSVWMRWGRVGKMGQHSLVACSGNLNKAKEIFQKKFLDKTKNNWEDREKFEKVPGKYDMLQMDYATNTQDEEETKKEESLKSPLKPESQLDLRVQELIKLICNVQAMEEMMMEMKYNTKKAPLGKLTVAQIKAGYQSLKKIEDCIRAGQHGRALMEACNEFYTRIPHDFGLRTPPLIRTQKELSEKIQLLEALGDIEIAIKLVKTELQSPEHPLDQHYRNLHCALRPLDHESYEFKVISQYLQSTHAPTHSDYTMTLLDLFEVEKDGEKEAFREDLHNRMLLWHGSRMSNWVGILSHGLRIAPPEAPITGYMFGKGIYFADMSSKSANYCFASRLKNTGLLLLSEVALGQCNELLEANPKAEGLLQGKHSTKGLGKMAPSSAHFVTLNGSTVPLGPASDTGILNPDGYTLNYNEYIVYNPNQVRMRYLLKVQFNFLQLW
Description: as §2

[2] = system: MDA-MB-436 (a BRCA-1-mutated breast cancer cell line); test: Cell proliferation assay, three-day, CellTiter-Glo, MDA-MB-436; type: cell-based; settings: for inhibition at 0.00508 µM: MDA-MB-436, MDA-MB-436, Conc. 0.00508 uM; for inhibition at 0.0152 µM: MDA-MB-436, MDA-MB-436, Conc. 0.0152 uM; for inhibition at 0.0457 µM: MDA-MB-436, MDA-MB-436, Conc. 0.0457 uM; for inhibition at 0.41 µM: MDA-MB-436, MDA-MB-436, Conc. 0.41 uM; for inhibition at 1.23 µM: MDA-MB-436, MDA-MB-436, Conc. 1.23 uM; for inhibition at 3.7 µM: MDA-MB-436, MDA-MB-436, Conc. 3.70 uM; for inhibition at 11.11 µM: MDA-MB-436, MDA-MB-436, Conc. 11.11 uM; for inhibition at 33.33 µM: MDA-MB-436, MDA-MB-436, Conc. 33.33 uM; for inhibition at 100 µM: MDA-MB-436, MDA-MB-436, Conc. 100.00 uM
Procedure, shortened: as §1

[3] = Homo sapiens, replicate 1, read-out: Inh % 1
[4] = Homo sapiens, replicate 2, read-out: Inh % 2

For `NC(=O)c1cccc2[nH]c(C3CCN(CCC(=O)c4ccccc4)C3)nc12` (centres unmarked) [Compound 5cp, 2-(1-(3-Oxo-3-phenylpropyl)pyrrolidin-3-yl)-1H-benzo[d]imidazole-4-carboxamide], the “Inh % 1” value ([1]; CAPAN-1, Conc. printed as #REF!, replicate 1) was 18.8%, the “Inh % 2” value ([1]; CAPAN-1, Conc. printed as #REF!, replicate 2) was 21.3% and the LogIC50 ([1]; CAPAN-1, curve-fit output, concentration axis Log (uM)) was 1.19. For the same molecule, the pIC50 ([1]; Homo sapiens, CAPAN-1, 72 h, CellTiter-Glo, read-out: CAPAN-1 IC50) was 4.81, the pIC50 ([1]; Homo sapiens, CAPAN-1, 72 h, supplement Summary sheet, read-out: IC50) was 4.81 and the inhibition at 0.00508 µM [1, 3] was -4.4%. It also gave an inhibition at 0.00508 µM [1, 4] of -9.4%, an inhibition at 0.0152 µM [1, 3] of 3.3% and an inhibition at 0.0152 µM [1, 4] of -2.6%. For the same molecule, the inhibition at 0.0457 µM [1, 3] was 0.846%, the inhibition at 0.0457 µM [1, 4] was -4.3% and the inhibition at […] [1, 3] was 4.9%. It also gave an inhibition at […] [1, 4] of -2.2%, an inhibition at 0.41 µM [1, 3] of -7.8% and an inhibition at 0.41 µM [1, 4] of -11.6%. It also gave an inhibition at 1.23 µM [1, 3] of 17.2%, an inhibition at 1.23 µM [1, 4] of -4.7% and an inhibition at 3.7 µM [1, 3] of -2.4%. The inhibition at 3.7 µM [1, 4] was -0.7%, the inhibition at 11.11 µM [1, 3] was 18.7% and the inhibition at 11.11 µM [1, 4] was 8.5%. The inhibition at 33.33 µM [1, 3] was 98.2%, the inhibition at 33.33 µM [1, 4] was 97.2% and the inhibition at 100 µM [1, 3] was 99.7%. For the same molecule, the inhibition at 100 µM [1, 4] was 99.1%, the IC50 ([1]; Homo sapiens, CAPAN-1, curve-fit output, concentration axis Log (uM), read-out: IC50) was 15.5 µM and the inhibition at 0.01 µM (PARP-1; supplement sheet, read-out: 10 nM inhibition% PAPR-1) was 68%. For the same molecule, the inhibition at 0.01 µM (PARP-1; read-out: PARP-1 Inhibition % (10 nM)) was 68%, the pIC50 (PARP-1; read-out: PARP-1 IC50) was 8.44 and the pIC50 (PARP-1; supplement sheet, read-out: IC50 PAPR-1) was 8.44. It also gave an inhibition at 0.01 µM (PARP-2; supplement sheet, read-out: 10 nM inhibition% PAPR-2) of 76.8%, an inhibition at 0.01 µM (PARP-2; read-out: PARP-2 Inhibition % (10 nM)) of 76.7% and a pIC50 (PARP-2; read-out: PARP-2 IC50) of 8.49. The pIC50 (PARP-2; supplement sheet, read-out: IC50 PAPR-2) was 8.50, the inhibition at 0.00508 µM [2, 3] was -1.4% and the inhibition at 0.00508 µM [2, 4] was -0.3%. It also gave an inhibition at 0.0152 µM [2, 3] of -1.8%, an inhibition at 0.0152 µM [2, 4] of -8.4% and an inhibition at 0.0457 µM [2, 3] of -13.1%. It also gave an inhibition at 0.0457 µM [2, 4] of -7%, an inhibition at 0.41 µM [2, 3] of -6.8% and an inhibition at 0.41 µM [2, 4] of -9.9%. The inhibition at 1.23 µM [2, 3] was -10%, the inhibition at 1.23 µM [2, 4] was -7.6% and the inhibition at 3.7 µM [2, 3] was -1.8%. It also gave an inhibition at 3.7 µM [2, 4] of -0.0749%, an inhibition at 11.11 µM [2, 3] of 7.8% and an inhibition at 11.11 µM [2, 4] of 4.7%. It also gave an inhibition at 33.33 µM [2, 3] of 91.6%, an inhibition at 33.33 µM [2, 4] of 79.7% and an inhibition at 100 µM [2, 3] of 99.8%. For the same molecule, the inhibition at 100 µM [2, 4] was 99.4%, the pIC50 ([2]; Homo sapiens, MDA-MB-436, 72 h, CellTiter-Glo, read-out: MDA-MB-436 IC50) was 4.70 and the pIC50 ([2]; Homo sapiens, MDA-MB-436, 72 h, supplement Summary sheet, read-out: IC50) was 4.70. The IC50 ([2]; Homo sapiens, MDA-MB-436, curve-fit parameter list, concentrations in uM, read-out: IC50) was 19.8 µM and the LogIC50 ([2]; MDA-MB-436, curve-fit parameter list, Log (uM)) was 1.296.
